Results published in publication PMC3748076 (2013).

How the values were obtained:
[1] = test system: WT 39-mer Bcl-2 promoter sequence G-quadruplex (39Bcl-2) (DNA, G4) AGGGGCGGGCGCGGGAGGAAGGGGGCGGGAGCGGGGCTG; experiment: ITC; conditions: 130 mM KCl, 20 mM potassium phosphate, 2 mM K4EDTA, pH 7.0, 25 °C
[2] = test system: WT 39-mer Bcl-2 promoter sequence G-quadruplex (39Bcl-2) (DNA, G4) AGGGGCGGGCGCGGGAGGAAGGGGGCGGGAGCGGGGCTG; experiment: ESI-MS; conditions: 50 mM ammonium acetate, 20% methanol, pH about 7, 80 µM DNA, 320 µM porphyrin

K1 ([1]; site 1 of 2 (two equivalent sites per mode))	binding ([2]; no free DNA seen)	K1 ([1]; two equivalent sites)	binding ([2]; some free DNA seen)	SMILES
37.0 ± 4.0 × 10^5	yes			C[n+]1ccc(-c2c3nc(c(-c4cc[n+](C)cc4)c4ccc([nH]4)c(-c4cc[n+](C)cc4)c4nc(c(-c5cc[n+](C)cc5)c5ccc2[nH]5)C=C4)C=C3)cc1
		2.6 ± 0.5 × 10^5	yes	C[n+]1cccc(-c2c3nc(c(-c4ccc[n+](C)c4)c4ccc([nH]4)c(-c4ccc[n+](C)c4)c4nc(c(-c5ccc[n+](C)c5)c5ccc2[nH]5)C=C4)C=C3)c1
		0.7 ± 0.5 × 10^5	yes	C[n+]1ccccc1-c1c2nc(c(-c3cccc[n+]3C)c3ccc([nH]3)c(-c3cccc[n+]3C)c3nc(c(-c4cccc[n+]4C)c4ccc1[nH]4)C=C3)C=C2
